Reference: patent US4218436A, “Compounds and methods” (The Upjohn Company, priority 1979, dated 1980)

What was measured:
[1] = system: antiserum raised against 9-deoxy-9-methylene PGF2 (BSA Conjugate); assay: RIA cross-reactivity, displacement of [^3 H] PGE2 from antiserum (BSA Conjugate); assay type: binding, rabbit; conditions: relative to PGE2; ng. required to displace 50% of [^3 H] PGE2
Protocol: (§1) Five milligrams of KLH-PGE2 mimic conjugate is added to 2.25 ml. of sterile saline (0.9%) and 2.25 ml. of Freund's complete adjuvant and blended. 1.0 ml. of this mixture is injected subcutaneously at 20-30 sites on the flanks of four Albino New Zealand rabbits of 2-4 kg. mass. Each rabbit receives a dose of about 1 mg. On the same day, 1.0 ml. of attenuated pertussis vaccine is injected intramuscularly at four sites on the hindquarters of each rabbit.
(§2) A known amount of PGE-type compound in 0.1 ml. PBSG buffer at pH 7.4±0.2 and 0.1 ml. of the radiolabeled form of the same PGE-type compound (10,000 cpm/0.1 ml. PBSG) are introduced into a 12×75 mm. polypropylene tube. Antiserum (0.1 ml.) against the corresponding mimic is added at a dilution which will bind 50%±3% of the radiolabeled authentic PGE-type compound in the absence of competition from the unlabeled PGE-type compound. The tube is incubated for 1 hour at 25° and then 12-16 hours at 4°. Antibody bound and free fractions are separated with dextran-coated charcoal. Other separation techniques are acceptable.
(§3) The data below show the cross-reactivity of antiserum raised against 9-deoxy-9-methylene PGF2 to various PGE-type compounds, relative to PGE2. Percent crossreaction is defined as (ng. of PGE2 required to displace 50% of [^3 H] PGE2)/(ng. heterologous PG required to displace 50% of [^3 H] PGE2)×100.

[2] = system: antiserum raised against 9-deoxy-9-methylene PGF2 (KLH Conjugate); assay: RIA cross-reactivity, displacement of [^3 H] PGE2 from antiserum (KLH Conjugate); assay type: binding, rabbit; conditions: relative to PGE2; ng. required to displace 50% of [^3 H] PGE2
Protocol: as §1, §2, §3

- % Cross-Reaction BSA Conjugate [1]: 2.9%
- % Cross-Reaction KLH Conjugate [2]: 0.09%
Compound: CCCCC[C@H](O)/C=C/[C@@H]1[C@@H](CCCCCCC(=O)O)[C@@H](O)C[C@H]1O [PGF1 α]
